“And” between values parts separate entries of the source, which are not always exact repeats. Equal entries are not always repeated. Where two headings read alike, the source gives them in different places.
Assays:
[1] = tested on: Halo–p53-Y220C ΔTAD–mCherry 293T cells versus parental 293T cells; test: flow-cytometry growth competition; type: cell-based; conditions: for activity / difference in cell survival in competition: 8-day competition; for normalized_mCherry_percentage: Y220C, day 8, normalized to DMSO; for mCherry_percent: 8 days, untreated 39.76; for Viability competition, AVERAGE: average of 3 replicates; for EC50: growth competition analyzed on day 10, n = 3, read-out: Competition EC50; for IC50 / Emax: viability competition (sheet 5B); for Emax: lowest average of sheet 5A
Description: (§1) Cells with and without a fluorescent marker (for example, Halo–p53–mCherry) were mixed and the resulting solution was plated in six-well plates or 10-cm dishes at low density; compound was added at varying concentrations. After reaching confluence, cells were passaged and retreated with compound if needed. Otherwise, cells were trypsinized, washed and resuspended in complete growth medium in 96-well plates or tubes for flow cytometry. Untreated cell mixtures were used to establish gates separating the fluorophore^+/− populations. Analysis was conducted on a CytoFLEX LX flow cytometer.

p53-Y220C = conditions: cited from earlier work
MFE319 cells = test: CellTiter-Glo cell viability; type: cell-based; design: p5301_AUC_to_10uM / AUC_rezatapopt: scale not given here; conditions: MFE319
Description: (§2) Cells were plated in 384-well plates (typically 1,500 cells per well) with varying concentrations of compounds, with a total volume of 50 μl per well. CTG reagent was added (25 μl) to the solutions, mixed and read out using an EnVision 2105 multimode plate reader.

LNCaP cells = test: CellTiter-Glo cell viability; type: cell-based; design: AUC_rezatapopt: unit not given beside the values; conditions: LNCaP
Description: as §2

MCF7 cells = test: CellTiter-Glo cell viability; type: cell-based; design: AUC_rezatapopt: unit not given beside the values
Description: as §2

NUGC-3 cells = test: CellTiter-Glo cell viability; type: cell-based; design: AUC_rezatapopt: unit not given beside the values; conditions: NUGC3
Description: as §2

MFE296 cells = test: CellTiter-Glo cell viability; type: cell-based; design: AUC_rezatapopt: unit not given beside the values
Description: as §2

HepG2 cells = test: CellTiter-Glo cell viability; type: cell-based; design: AUC_rezatapopt: unit not given beside the values
Description: as §2

DU145 cells = test: CellTiter-Glo cell viability; type: cell-based; design: AUC_rezatapopt: unit not given beside the values
Description: as §2

Huh7 cells = test: CellTiter-Glo cell viability; type: cell-based; design: AUC_rezatapopt: unit not given beside the values
Description: as §2

[2] = tested on: Halo–p53-R273H (FL)–mCherry 293T cells versus parental 293T cells; test: flow-cytometry growth competition; type: cell-based
Description: as §1

[3] = tested on: Calu-1 cells stably expressing Halo–p53-R273H (FL)–mCherry versus parental Calu-1 cells; test: flow-cytometry growth competition; type: cell-based; conditions: sheet S2E
Description: as §1

[4] = target: T1, p53-Y220C–PLK1 ternary complex (Homo sapiens, UniProt P04637+P53350, M133L/N239Y/N268D/V203A/Y220C); test: NanoBiT ternary complex assay in cotransfected 293T cells; type: cell-based
T1 construct: NLS–LgBiT–p53-Y220C (DBD) and mEGFP–PLK1–SmBiT; expressed in transfected cells; host or cells: 293T cells, transient cotransfection
Source text: After 1 day, the cells were passaged into 384-well plates and treated with varying concentrations of compound.

[5] = tested on: cancer cell lines across DepMap; design: method as in DepMap; conditions: antiproliferative; PRISM OncRef; ref DepMap; read-out: median IC50 across DepMap; cited from earlier work
WEE1 = tested on: WEE1; design: method as in PMID 19887545; conditions: cell-free; read-out: IC50 for cell-free WEE1 inhibition; cited from earlier work
[6] = 24 h, n = 4, read-out: NanoBiT EC50

O=C(/C=C\n1cnc(-c2cc(C(F)(F)F)cc(C(F)(F)F)c2)n1)NNc1cnccn1 [selinexor]
activity / difference in cell survival in competition [1]: did not observe any activity | normalized_mCherry_percentage ([1]; 1 nM): 98.56% | normalized_mCherry_percentage ([1]; 10 nM): 98.63% | normalized_mCherry_percentage ([1]; 100 nM): 103.2% | normalized_mCherry_percentage ([1]; 1 uM): 99.86%

CNC(=O)c1ccc(NCC#Cc2cc3c(N[C@@H]4CCN(C)C[C@@H]4F)cccc3n2CC(F)(F)F)c(OC)c1 [rezatapopt]
Kd (p53-Y220C): ~2.5 nM | AUC_rezatapopt (MFE319 cells): 0.8525 | AUC_rezatapopt (LNCaP cells): 0.9713 | AUC_rezatapopt (MCF7 cells): 0.9331 | AUC_rezatapopt (NUGC-3 cells): 0.5908 | AUC_rezatapopt (MFE296 cells): 0.5683 | AUC_rezatapopt (HepG2 cells): 0.9433 | AUC_rezatapopt (DU145 cells): 1 | AUC_rezatapopt (Huh7 cells): 0.6525

C=CCn1c(=O)c2cnc(Nc3ccc(N4CCN(C(=O)CCOCCOCCC(=O)NCCOCCOCCCCCCCl)CC4)cc3)nc2n1-c1cccc(C(C)(C)O)n1 [Halo-PEG2-adavosertib]
mCherry_percent ([1]; 100 nM): 10.55% | mCherry_percent ([1]; 1 uM): 4.24% | mCherry_percent ([1]; 10 uM): 26.57% | EC50 ([2]; Homo sapiens, HEK-293T, Halo–p53-R273H (FL)–mCherry 293T cells as printed, Extended Data Fig. 2f): 41 nM | selective inhibition of proliferation in competition assay ([2]; doses between 100 nM and 1 μM, cells as printed): selectively inhibited the proliferation

CC[C@@H]1C(=O)N(C)c2cnc(Nc3ccc(C(=O)NCCOCCOCCC(=O)NCCOCCOCCCCCCCl)cc3OC)nc2N1C1CCCC1 [HLDA-131]
mCherry_percent ([3]; 1 nM): 83.77% | mCherry_percent ([3]; 10 nM): 55.02% | mCherry_percent ([3]; 100 nM): 4.8% | mCherry_percent ([3]; 1 uM): 3.52%

PEG6
Viability competition, Replicate 1-3 ([1]; Concentration (nM) 10): 0.5239 and 0.6471 and 0.659 | Viability competition, AVERAGE ([1]; Concentration (nM) 10): 0.61 | Viability competition, Replicate 1-3 ([1]; Concentration (nM) 100): 0.5384 and 0.6799 and 0.6767 | Viability competition, AVERAGE ([1]; Concentration (nM) 100): 0.6317 | Viability competition, Replicate 1-3 ([1]; Concentration (nM) 500): 0.4819 and 0.6302 and 0.6328 | Viability competition, AVERAGE ([1]; Concentration (nM) 500): 0.5816 | Viability competition, Replicate 1-3 ([1]; Concentration (nM) 1000): 0.2653 and 0.295 and 0.3011 | Viability competition, AVERAGE ([1]; Concentration (nM) 1000): 0.2871 | Viability competition, Replicate 1-3 ([1]; Concentration (nM) 2000): 0.064 and 0.0676 and 0.0785 | Viability competition, AVERAGE ([1]; Concentration (nM) 2000): 0.07003 | Viability competition, Replicate 1-3 ([1]; Concentration (nM) 5000): 0.1113 and 0.1194 and 0.102 | Viability competition, AVERAGE ([1]; Concentration (nM) 5000): 0.1109 | EC50 [1]: 900 nM | IC50 [1]: 899 nM | Emax [1]: 0.07003 | EC50 [4, 6]: 3680 nM | NanoBiT mean_norm ([4]; Concentration 19.5312): 1.005 | NanoBiT mean_norm ([4]; Concentration 39.0625): 0.9853 | NanoBiT mean_norm ([4]; Concentration 78.125): 1.029 | NanoBiT mean_norm ([4]; Concentration 156.25): 1.026 | NanoBiT mean_norm ([4]; Concentration 312.5): 1.029 | NanoBiT mean_norm ([4]; Concentration 625): 1.011 | NanoBiT mean_norm ([4]; Concentration 1250): 1.186 | NanoBiT mean_norm ([4]; Concentration 2500): 1.25 | NanoBiT mean_norm ([4]; Concentration 5000): 1.542 | NanoBiT mean_norm ([4]; Concentration 10000): 1.6853 | Max_effect ([4]; sheet 5C): 1.6853 | EC50 ([4]; sheet 5C, read-out: EC50): 3680 nM

CC[C@@H]1C(=O)N(C)c2cnc(Nc3ccc(C(=O)NCCC(=O)N4CCC(Nc5cccc6c5cc(C#CCNc5ccc(S(C)(=O)=O)cc5OC)n6CC(F)(F)F)CC4)cc3OC)nc2N1C1CCCC1 [PMV6-C3-BI2536]
Viability competition, AVERAGE ([1]; Concentration (nM) 10): 0.6993 | Viability competition, Replicate 1-3 ([1]; Concentration (nM) 10, listed as C3): 0.706 and 0.7024 and 0.6895 | Viability competition, AVERAGE ([1]; Concentration (nM) 100): 0.1737 | Viability competition, Replicate 1-3 ([1]; Concentration (nM) 100, listed as C3): 0.1753 and 0.1712 and 0.1746 | Viability competition, AVERAGE ([1]; Concentration (nM) 500): 0.1322 | Viability competition, Replicate 1-3 ([1]; Concentration (nM) 500, listed as C3): 0.1474 and 0.1221 and 0.127 | Viability competition, AVERAGE ([1]; Concentration (nM) 1000): 0.1085 | Viability competition, Replicate 1-3 ([1]; Concentration (nM) 1000, listed as C3): 0.1425 and 0.0972 and 0.0859 | Viability competition, AVERAGE ([1]; Concentration (nM) 2000): 0.0794 | Viability competition, Replicate 1-3 ([1]; Concentration (nM) 2000, listed as C3): 0.0894 and 0.0623 and 0.0865 | Viability competition, AVERAGE ([1]; Concentration (nM) 5000): 0.1321 | Viability competition, Replicate 1-3 ([1]; Concentration (nM) 5000, listed as C3): 0.1277 and 0.1154 and 0.1531 | potency versus p53-01 in the competition assay ([1]; day 10): over 1.5 orders of magnitude | EC50 [1]: 25 nM | IC50 [1]: 25.3 nM | Emax [1]: 0.0794 | EC50 [4, 6]: 410 nM | NanoBiT mean_norm ([4]; Concentration 19.5312): 1.06 | NanoBiT mean_norm ([4]; Concentration 39.0625): 1.117 | NanoBiT mean_norm ([4]; Concentration 78.125): 1.1621 | NanoBiT mean_norm ([4]; Concentration 156.25): 1.171 | NanoBiT mean_norm ([4]; Concentration 312.5): 1.264 | NanoBiT mean_norm ([4]; Concentration 625): 1.76 | NanoBiT mean_norm ([4]; Concentration 1250): 1.765 | NanoBiT mean_norm ([4]; Concentration 2500): 1.801 | NanoBiT mean_norm ([4]; Concentration 5000): 1.856 | NanoBiT mean_norm ([4]; Concentration 10000): 1.853 | Max_effect ([4]; sheet 5C): 1.856 | EC50 ([4]; sheet 5C, read-out: EC50): 406 nM

CC[C@@H]1C(=O)N(C)c2cnc(Nc3ccc(C(=O)NCCOCCOCCOCCOCCC(=O)N4CCC(Nc5cccc6c5cc(C#CCNc5ccc(S(C)(=O)=O)cc5OC)n6CC(F)(F)F)CC4)cc3OC)nc2N1C1CCCC1 [PEG4 (p53-01)]
Viability competition, Replicate 1-3 ([1]; Concentration (nM) 10): 0.6959 and 0.6663 and 0.6621 | Viability competition, AVERAGE ([1]; Concentration (nM) 10): 0.6748 | Viability competition, Replicate 1-3 ([1]; Concentration (nM) 100): 0.7132 and 0.7004 and 0.6708 | Viability competition, AVERAGE ([1]; Concentration (nM) 100): 0.6948 | Viability competition, Replicate 1-3 ([1]; Concentration (nM) 500): 0.6679 and 0.6445 and 0.6361 | Viability competition, AVERAGE ([1]; Concentration (nM) 500): 0.6495 | Viability competition, Replicate 1-3 ([1]; Concentration (nM) 1000): 0.309 and 0.295 and 0.2813 | Viability competition, AVERAGE ([1]; Concentration (nM) 1000): 0.2951 | Viability competition, Replicate 1-3 ([1]; Concentration (nM) 2000): 0.1194 and 0.1119 and 0.1123 | Viability competition, AVERAGE ([1]; Concentration (nM) 2000): 0.1145 | Viability competition, Replicate 1-3 ([1]; Concentration (nM) 5000): 0.1698 and 0.1509 and 0.1508 | Viability competition, AVERAGE ([1]; Concentration (nM) 5000): 0.1572 | IC50 [1]: 851 nM | Emax [1]: 0.1145

AP1867-C8-BI2536
activity / difference in cell survival in competition [1]: did not observe any activity | normalized_mCherry_percentage ([1]; 1 nM): 97.6% | normalized_mCherry_percentage ([1]; 10 nM): 98.26% | normalized_mCherry_percentage ([1]; 100 nM): 98.72% | normalized_mCherry_percentage ([1]; 1 uM): 93.37%

C=CC(=O)n1c2ccccc2c2cc(C(=O)NCc3cn(CCOCCOCCOCCOCCNC(=O)c4ccc(Nc5ncc6c(n5)N(C5CCCC5)[C@H](CC)C(=O)N6C)c(OC)c4)nn3)ccc21 [KG5-PEG4-BI2536]
activity / difference in cell survival in competition [1]: did not observe any difference in cell survival | normalized_mCherry_percentage ([1]; 1 nM): 98.99% | normalized_mCherry_percentage ([1]; 10 nM): 99.96% | normalized_mCherry_percentage ([1]; 100 nM): 100.2% | normalized_mCherry_percentage ([1]; 1 uM): 99.83%

C=CCn1c(=O)c2cnc(Nc3ccc(N4CCN(C)CC4)cc3)nc2n1-c1cccc(C(C)(C)O)n1 [adavosertib]
IC50 [5]: 348 nM | IC50 (WEE1): 5.2 nM
